According to patent US20240148664A1, “LIPID AND COMPOSITION” (SOGO PHARMACEUTICAL CO., LTD., priority 2021, published 2024):

Columns and labels:
[1] = siRNA / mRNA encapsulation rate of lipid nanoparticle (RiboGreen); assay type: physicochemical; settings: siRNA encapsulation rate of lipid nanoparticle
Method: The siRNA encapsulation rate and the mRNA encapsulation rate of the lipid nanoparticle were obtained as follows. First, a surfactant (Sigma-Aldrich, Triton (registered trademark), X-100 (reducing type)) was added to the lipid nanoparticle-containing solution to disrupt the lipid nanoparticle to release the encapsulated siRNA or mRNA. The amounts of the lipid nanoparticle-containing solution and the surfactant were adjusted such that the siRNA or the mRNA was 2 pmol and the surfactant was 1% in 40 μL of the solution after adding the surfactant to the lipid nanoparticle-containing solution. Next, the RiboGreen reagent (reagent that reacts with siRNA to emit fluorescence, manufactured by Thermo Fisher Scientific, Quant-iT (registered trademark) RiboGreen (registered trademark) RNA Assay Kit) was added to the solution, and the fluorescence intensity was measured under conditions of an excitation wavelength of 480 nm and a fluorescence wavelength of 520 nm with a fluorescence intensity meter (manufactured by TECAN, Infinite M200). Specifically, 75 μL of the RiboGreen reagent diluted to 1/2000 was added to a diluted solution obtained by adding 65 μL of citrate buffer to 10 μL of the solution, and the fluorescence intensity was measured. This makes it possible to relatively measure the total amount of the siRNA or the total amount of the mRNA present in the solution.
Subsequently, the RiboGreen reagent was added to the lipid nanoparticle-containing solution without adding a surfactant, and the fluorescence intensity was measured in the same manner with a fluorescence intensity meter. By not adding a surfactant, it is possible to relatively measure the amount of the siRNA or the mRNA free in the solution without being encapsulated in the lipid nanoparticle.
Then, the fluorescence intensity obtained from the solution to which the surfactant was added obtained as described above was fluorescence intensity a, and the fluorescence intensity thus obtained from the solution to which no surfactant was added obtained as described above was fluorescence intensity b, and according to the expression (a−b)/a×100, the siRNA encapsulation rate (%) or the mRNA encapsulation rate (%) of the lipid nanoparticle was obtained. Each of fluorescence intensity a and fluorescence intensity b is a value obtained by subtracting a blank from the arithmetic average value of the results of three measurements for each solution. The blank was measured by carrying out the same operation on a well containing water containing no cell or lipid nanoparticle.

[2] = Measurement of particle size, polydispersity index and zeta potential of lipid nanoparticle (Zetasizer); assay type: physicochemical; settings: lipid nanoparticle containing siRNA; for Particle size (nm) / PDI: main lipid/DPPC/cholesterol=45/10/45; for Particle size (nm): Z-average in ultrapure water; for PDI: ultrapure water; for Zeta potential (mV): pH 7.4 Tris-HCl
Method: 30 μL of each of the dialyzed lipid nanoparticle-containing solutions obtained by the above operation was measured out, 800 μL of ultrapure water was added to dilute the lipid nanoparticle-containing solution, and the diluted preparation solution was used to measure the particle size (nm) and the polydispersity index (PDI) by using a Zetasizer (manufactured by Malvern Panalytical, Zetasizer nano Ultra). The particle size was evaluated by Z-average in ultrapure water. The zeta potential was measured by using pH 7.4 Tris-HCl as a dilute solution.

[3] = tested on: HT1080-EGFP (human/fibrosarcoma) cells; experiment: Evaluation of toxicity: LDH assay; assay type: cell-based; settings: lipid nanoparticle containing siRNA; absorbance relative to control cells without lipid nanoparticle set at 1.00
Method: (§1) A. Provision of Cells • (i) A liquid medium (DMEM/Ham's F12, FBS+, P/S+) (FBS: fetal bovine serum, P/S: antibiotic) was taken out from a refrigerator and temperature-controlled in an incubator set at 37° C. • (ii) A cryotube containing the cells was taken out from a −80° C. freezer and thawed at once in an incubator set at 37° C. • (iii) A stock solution of the thawed cells was collected in a capped test tube. • (iv) The tube containing the cells was washed with the liquid medium, and the wash was also collected in the test tube. • (v) The tube was subjected to a centrifuge to precipitate the cells. • (vi) The supernatant was aspirated, and the liquid medium was added and gently tapped to disperse the cells. • (vii) A small amount of the cells-dispersed liquid medium was collected, and the number of cells was observed and counted under a microscope. • (viii) The cells were seeded in a 24-well plate such that the number of cells was 2×10^4 cells per well. For the plate for an LDH assay described later, the cells were seeded in a 96-well plate such that the number of cells was 4×10^3 cells per well. • (ix) The 24-well plate or the 96-well plate was placed in an incubator, and the cells were cultured for 24 hours under conditions of 37° C. and 5% CO2.
The introduction of lipid nanoparticles into cells for an LDH assay described later was carried out as follows. • (i) A 96-well plate was taken out from an incubator. • (ii) The liquid medium supernatant in the 96-well plate was aspirated and washed with phosphate buffered saline (PBS). • (iii) 160 μL of a liquid medium containing 10% FBS (FBS+/P/S+) was added to the washed 96-well plate. In addition, 40 μL of an LNP solution having an adjusted concentration was added. • (iv) The 96-well plate was placed in the incubator, and the cells were cultured for 24 hours under conditions of 37° C. and 5% CO2.
For Examples 1 to 9, a CCK-8 assay or an LDH assay was carried out to measure the metabolic activity of viable cells and relatively quantify the number of surviving cells to evaluate the toxicity of lipid nanoparticles.
An LDH assay was carried out by using a viable cell counting kit (DOJINDO LABORATORIES, Cytotoxicity LDH Assay Kit-WST) as follows. • (i) 20 μL of a lysis buffer was added to each of positive control wells and incubated at 37° C. for 30 minutes in an incubator. • (ii) 100 μL of the supernatant was taken from each well and transferred to a 96-well plate for measurement. • (iii) 100 μL of the reagent mixture attached to the kit was added to all the wells, and a color reaction was carried out for 30 minutes at room temperature with exclusion of light. • (iv) 50 μL of the stop solution reagent attached to the kit was added to all the wells. • (v) The 96-well plate was measured under conditions of a measurement wavelength of 490 nm and a target wavelength of 630 nm with a plate reader (manufactured by TECAN, Infinite M200) to calculate the absorbance. The absorbance was calculated with the absorbance of control cells to which no lipid nanoparticle was added set at 1.00. When the obtained value was 0.50 or less, a rating of double-circle (excellent) was given, when the obtained value was more than 0.50 and 1.0 or less, a rating of circle (good) was given, when the obtained value was more than 1.0 and less than 6.0, a rating of triangle (fair) was given, and when the obtained value was 6.0 or more, a rating of X-mark (poor) was given.

[4] = tested on: HT1080-EGFP (human/fibrosarcoma) cells; experiment: Evaluation of knockdown effect (GFP assay), Cell experiment 1; assay type: cell-based; settings: lipid nanoparticle containing siRNA against EGFP; fluorescence intensity with control cells without lipid nanoparticle set at 100
Method: A cell experiment was carried out by using HT1080-EGFP (human/fibrosarcoma) cells in order to evaluate lipid nanoparticles encapsulating an siRNA produced by using the lipids of the Examples and the Comparative Examples. These cells are cells provided with a green fluorescent protein gene (EGFP). The expression of EGFP can be easily confirmed by measuring the fluorescence intensity of a solution in which the cells are lysed, and thus by acting lipid nanoparticles encapsulating an siRNA that suppresses the expression of EGFP and observing any decrease in fluorescence intensity, the performance of the lipid nanoparticles used can be evaluated. Hereinafter, the procedure of the cell experiment will be shown.
as §1
The produced lipid nanoparticles were introduced into cells. • (i) Fetal bovine serum (FBS) was added to a liquid medium (FBS-, P/S-) temperature-controlled as in (i) of A above, in such a way as to reach 10%. • (ii) A 24-well plate was taken out from an incubator, and the liquid medium supernatant in the 24-well plate was aspirated and washed with phosphate buffered saline (PBS). • (iii) 400 μL of the liquid medium produced in (i) above was added to the washed 24-well plate. In addition, 100 μL of an LNP solution having an adjusted concentration was added. • (iv) The 24-well plate was placed in the incubator, and the cells were cultured (for 24 hours). • (v) After 24 hours, the liquid medium supernatant in the 24-well plate was aspirated, and 500 μL of a liquid medium containing 10% FBS (FBS+/P/S+) was added. • (vi) The 24-well plate was placed in the incubator, and the cells were cultured for 24 hours under conditions of 37° C. and 5% CO2.
By carrying out a GFP assay, the EGFP expression level in cells was measured to evaluate the effect of knocking down the green fluorescent protein gene (EGFP) by lipid nanoparticles. • (i) A 24-well plate was taken out from an incubator and washed with PBS. • (ii) A 1% octylglucoside solution to which a protease inhibitor was added was added in order to disrupt cells. Stirring with a pipette lysed the cells. • (iii) The cell lysate was transferred to an Eppendorf tube and subjected to a centrifuge. • (iv) 150 μL of the supernatant was collected and added to a plate for fluorescence measurement. • (v) The fluorescence intensity was measured under conditions of an excitation wavelength of 485 nm and a fluorescence wavelength of 535 nm with a plate reader (manufactured by TECAN, Infinite M200). The fluorescence intensity was calculated with the fluorescence intensity of control cells to which no lipid nanoparticle was added set at 100.

SMILES | Encapsulation rate (%) [1] [%] | Particle size (nm) [2] [nm] | PDI [2] | Zeta potential (mV) [2] [mV] | LDH Assay [3] | GFP Assay [4]
CC/C=C\CCC(CCCCCCCCCCC/C=C\CCCCCCCC)OC(=O)[C@@H](N)CCCCN (stereo partly drawn) [Comparative Example 9, (3Z,19Z)-octacosa-3,19-dien-7-yl lysinate, reference compound] | 100 | 759.4 | 0.508 | 32.7 |  | 
CCCCCCCC/C=C\CCCCCCCCC(CCCCCCC/C=C\CCCCCCCC)OC(=O)C(N)C(C)O (stereo not drawn) [Comparative Example 1, (9Z,27Z)-hexatriaconta-9,27-dien-18-yl 2-amino-3-hydroxybutanoate, reference compound] |  |  |  | 27.8 |  | 
CCCCC/C=C\CCCC(CC/C=C\CCCCC)OC(=O)C(N)CCCCN (stereo not drawn) [Comparative Example 5, (6Z,14Z)-icosa-6,14-dien-10-yl lysinate, reference compound] | 100 | 324.5 | 0.731 | 50.8 |  | 
CCCCCCCC/C=C\CCCCCCCCCCCCC(CCCCCCCCCCC/C=C\CCCCCCCC)OC(=O)[C@@H](N)CCCCN (stereo partly drawn) [Comparative Example 7, (9Z,35Z)-tetratetraconta-9,35-dien-22-yl lysinate, reference compound] | 99 | 149.8 | 0.021 | 21.0 |  | 
CC/C=C\CCC(CCCCCCC/C=C\CCCCCC)OC(=O)[C@@H](N)CCCCN (stereo partly drawn) [Comparative Example 8, (3Z,15Z)-docosa-3,15-dien-7-yl lysinate, reference compound] | 100 | 233.1 | 0.187 | 29.7 |  | 
CCCCCCCC/C=C\CCCCCCCCC(CCCCCCC/C=C\CCCCCCCC)OC(=O)C(Cc1c[nH]cn1)NC(=O)C(N)CCCNC(=N)N (stereo not drawn) [Example 3, (9Z,27Z)-hexatriaconta-9,27-dien-18-ylarginylhistidinate] |  |  |  |  | ◯ (when the obtained value was more than 0.50 and 1.0 or less, a rating of circle (good) was given) | 22
CCCCCC/C=C\CCCCCCCCC(CCCCCCC/C=C\CCCCCC)OC(=O)C(N)CCCCN (stereo not drawn) [Comparative Example 6, (7Z,25Z)-dotriaconta-7,25-dien-16-yl lysinate, reference compound] | 99 | 212.1 | 0.022 | 27.5 |  | 
CCCCCCCC/C=C\CCCCCCCCC(CCCCCCC/C=C\CCCCCCCC)OC(=O)[C@@H](N)CCCCN (stereo partly drawn) [Comparative Example 4, (9Z,27Z)-hexatriaconta-9,27-dien-18-yl lysinate, reference compound] | 99 | 147.5 | 0.063 | 26.5 |  | 86
CCCCC/C=C\C/C=C\CCCCCCCCC(CCCCCCC/C=C\C/C=C\CCCCC)OC(=O)C(NC(=O)C(N)CCCNC(=N)N)C(C)O (stereo not drawn) [Example 10, (6Z,9Z,27Z,30Z)-hexatriaconta-6,9,27,30-tetraen-18-yl 2-(2-amino-5-guanidinopentanamido)-3-hydroxybutanoate] | 98 | 103.6 | 0.095 | 36.8 |  | 11
